Laboratory results from patent US8299048B2, “Hexahydrocyclopentyl[f]indazole sulfonamides and derivatives thereof as selective glucocorticoid receptor modulators” (Merck Sharp & Dohme Corp., priority 2008, dated 2012).
pKi: −log10 of the molar value.

What follows are compounds tested against T1, glucocorticoid receptor (Homo sapiens, UniProt P04150) (assay: Ligand binding assay (GR BIND)).
T1 construct: endogenous in cells
T1 sequence (P04150 1-777): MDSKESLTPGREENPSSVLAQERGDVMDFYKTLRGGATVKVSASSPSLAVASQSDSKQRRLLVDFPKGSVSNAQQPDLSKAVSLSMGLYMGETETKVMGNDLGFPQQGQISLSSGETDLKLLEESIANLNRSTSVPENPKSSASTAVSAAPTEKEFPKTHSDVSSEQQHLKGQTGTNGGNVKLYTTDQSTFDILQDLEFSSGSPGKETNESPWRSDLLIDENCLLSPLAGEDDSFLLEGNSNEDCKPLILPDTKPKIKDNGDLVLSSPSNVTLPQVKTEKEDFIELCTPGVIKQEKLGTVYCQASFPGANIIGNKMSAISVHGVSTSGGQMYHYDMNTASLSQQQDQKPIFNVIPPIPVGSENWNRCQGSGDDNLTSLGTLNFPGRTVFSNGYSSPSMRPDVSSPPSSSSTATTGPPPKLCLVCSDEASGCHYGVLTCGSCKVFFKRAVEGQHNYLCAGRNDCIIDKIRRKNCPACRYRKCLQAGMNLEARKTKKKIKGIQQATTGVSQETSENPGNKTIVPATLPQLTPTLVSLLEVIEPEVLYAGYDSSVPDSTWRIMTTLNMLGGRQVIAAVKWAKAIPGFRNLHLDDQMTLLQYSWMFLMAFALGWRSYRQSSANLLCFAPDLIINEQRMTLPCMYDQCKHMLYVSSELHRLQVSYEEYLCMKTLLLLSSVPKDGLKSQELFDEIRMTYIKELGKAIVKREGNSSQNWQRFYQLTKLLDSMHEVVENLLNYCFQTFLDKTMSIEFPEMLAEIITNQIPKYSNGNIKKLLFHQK
How it was run: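 Cytosol from freeze–thawed cells in TEGM (pH 7.2, 10 mM molybdate) was incubated overnight at 4 °C with compound and [3H]-dexamethasone trace (added as 6 nM solution), 2% EtOH final. Bound ligand was captured on hydroxylapatite, filtered, washed and scintillation counted. Values were calculated with dexamethasone as reference.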

pKi | Structure (SMILES)
8.89 | COCCN(C[C@H]1CCC2=Cc3c(cnn3-c3ccc(F)cc3)C[C@@]21C)S(=O)(=O)c1c(C)noc1C [Example 173, N-{[(4αR,5S)-1-(4-fluorophenyl)-4α-methyl-1,4,4α,5,6,7-hexahydrocyclopenta[f]indazol-5-yl]methyl}-N-(2-methoxyethyl)-3,5-dimethylisoxazole-4-sulfonamide]
8.74 | C[C@]12Cc3cnn(-c4ccc(F)cc4)c3C=C1CC[C@@H]2CN(CC1CC1)S(=O)(=O)c1ccc(F)c(Cl)c1 [Example 15, 3-chloro-N-(cyclopropylmethyl)-4-fluoro-N-{[(4αR,5S)-1-(4-fluorophenyl)-4α-methyl-1,4,4α,5,6,7-hexahydrocyclopenta[f]indazol-5-yl]methyl}benzenesulfonamide]
7.88 | C[C@H](O)CN(C[C@H]1CCC2=Cc3c(cnn3-c3ccc(F)cc3)C[C@@]21C)S(=O)(=O)Cc1ccccc1C(N)=O [Example 185, 2-[({{[(4αR,5S)-1-(4-fluorophenyl)-4α-methyl-1,4,4α,5,6,7-hexahydrocyclopenta[f]indazol-5-yl]methyl}[(2S)-2-hydroxypropyl]amino}sulfonyl)methyl]benzamide]
8.02 | C[C@@H](O)CN(C[C@H]1CCC2=Cc3c(cnn3-c3ccc(F)cc3)C[C@@]21C)S(=O)(=O)Cc1ccccc1C(N)=O [Example 184, 2-[({{[(4αR,5S)-1-(4-fluorophenyl)-4α-methyl-1,4,4α,5,6,7-hexahydrocyclopenta[f]indazol-5-yl]methyl}[(2R)-2-hydroxypropyl]amino}sulfonyl)methyl]benzamide]
8.31 | Cc1oncc1S(=O)(=O)N(CC#N)C[C@H]1CCC2=Cc3c(cnn3-c3ccc(F)cc3)C[C@@]21C [Example 23, N-(cyanomethyl)-N-{[(4αR,5S)-1-(4-fluorophenyl)-4α-methyl-1,4,4α,5,6,7-hexahydrocyclopenta[f]indazol-5-yl]methyl}-5-methylisoxazole-4-sulfonamide]
8.72 | Cc1nn(C)c(Cl)c1S(=O)(=O)N(CC#N)C[C@H]1CCC2=Cc3c(cnn3-c3ccc(F)cc3)C[C@@]21C [Example 52, 5-chloro-N-(cyanomethyl)-N-{[(4αR,5S)-1-(4-fluorophenyl)-4α-methyl-1,4,4α,5,6,7-hexahydrocyclopenta[f]indazol-5-yl]methyl}-1,3-dimethyl-1H-pyrazole-4-sulfonamide]
8.36 | CC([C@H]1CCC2=Cc3c(cnn3-c3ccc(F)cc3)C[C@@]21C)N(CCc1ccccn1)S(=O)(=O)Cc1cccnc1 (stereo partly drawn) [Example 197, N-{1-[(4αR)-1-(4-fluorophenyl)-4α-methyl-1,4,4α,5,6,7-hexahydrocyclopenta[f]indazol-5-yl]ethyl}-1-pyridin-3-yl-N-(2-pyridin-2-ylethyl)methanesulfonamide]
8.62 | CC(C)(O)CN(C[C@H]1CCC2=Cc3c(cnn3-c3ccc(F)cc3)C[C@@]21C)S(=O)(=O)c1ccccc1F [Example 199, 2-fluoro-N-{[(4αR,5S)-1-(4-fluorophenyl)-4α-methyl-1,4,4α,5,6,7-hexahydrocyclopenta[f]indazol-5-yl]methyl}-N-(2-hydroxy-2-methylpropyl)benzenesulfonamide]
8.60 | COC(=O)c1ccccc1S(=O)(=O)N(C[C@H]1CCC2=Cc3c(cnn3-c3ccc(F)cc3)C[C@@]21C)C[C@H](C)O [Example 187, methyl 2-({{[(4αR,5S)-1-(4-fluorophenyl)-4α-methyl-1,4,4α,5,6,7-hexahydrocyclopenta[f]indazol-5-yl]methyl}[(2S)-2-hydroxypropyl]amino}sulfonyl)benzoate]
7.98 | C[C@]12Cc3cnn(-c4ccc(F)cc4)c3C=C1CC[C@@H]2CN(CC#N)S(=O)(=O)c1cccc2ccccc12 [Example 40, N-(cyanomethyl)-N-{[(4αR,5S)-1-(4-fluorophenyl)-4α-methyl-1,4,4α,5,6,7-hexahydrocyclopenta[f]indazol-5-yl]methyl}naphthalene-1-sulfonamide]
9.22 | C[C@]12Cc3cnn(-c4ccc(F)cc4)c3C=C1CC[C@@H]2CN(CC1CC1)S(=O)(=O)/C=C/c1ccccc1 [Example 13, (E)-N-(cyclopropylmethyl)-N-{[(4αR,5S)-1-(4-fluorophenyl)-4α-methyl-1,4,4α,5,6,7-hexahydrocyclopenta[f]indazol-5-yl]methyl}-2-phenylethylenesulfonamide]
8.57 | C[C@]12Cc3cnn(-c4ccc(F)cc4)c3C=C1CC[C@@H]2CN(CC#N)S(=O)(=O)c1ccccc1C#N [Example 55]
7.84 | C[C@]12Cc3cnn(-c4ccc(F)cc4)c3C=C1CC[C@@H]2CN(CCO)S(=O)(=O)Cc1ccccc1C(N)=O [Example 198, 2-({[{[(4αR,5S)-1-(4-fluorophenyl)-4α-methyl-1,4,4α,5,6,7-hexahydrocyclopenta[f]indazol-5-yl]methyl}(2-hydroxyethyl)amino]sulfonyl}methyl)benzamide]
